Data on 2 compounds can be found in article PMC7719768, “Glycogen Phosphorylase: A Drug Target of Amino Alcohols in Echinococcus granulosus, Predicted by a Computer-Aided Method” (Frontiers in Microbiology, 2020).

Assay [1] addresses T1, E. granulosus PSC Gp (EgGps: EgGp1 and EgGp2).
T1 construct: native enzyme in protoscolex homogenate, not purified; band at 96 kD; MN562583 = EgGp1, MN562584 = EgGp2; EgrG_000501500.1 is printed for Gp without saying which gene
Briefly: glycogen degradation coupled to phosphoglucomutase and glucose-6-phosphate dehydrogenase, NADPH at […] nm. Type of assay: biochemical, Echinococcus granulosus. The settings on record: protoscolex homogenate; 2 mg/ml glycogen, 1 mM AMP, 5 mM MgCl2, Tris-HCl, 25 °C; 2 min pre-incubation; read-out: IC50/LC50 (μM) / Gp / E. granulosus PSC.

Assay [2] deals with T2, Rabbit muscle Gp (recombinant rabbit Gp) (Oryctolagus cuniculus, UniProt P00489).
T2 construct: gene PYGM; called recombinant rabbit Gp in the methods
T2 sequence (P00489 2-843): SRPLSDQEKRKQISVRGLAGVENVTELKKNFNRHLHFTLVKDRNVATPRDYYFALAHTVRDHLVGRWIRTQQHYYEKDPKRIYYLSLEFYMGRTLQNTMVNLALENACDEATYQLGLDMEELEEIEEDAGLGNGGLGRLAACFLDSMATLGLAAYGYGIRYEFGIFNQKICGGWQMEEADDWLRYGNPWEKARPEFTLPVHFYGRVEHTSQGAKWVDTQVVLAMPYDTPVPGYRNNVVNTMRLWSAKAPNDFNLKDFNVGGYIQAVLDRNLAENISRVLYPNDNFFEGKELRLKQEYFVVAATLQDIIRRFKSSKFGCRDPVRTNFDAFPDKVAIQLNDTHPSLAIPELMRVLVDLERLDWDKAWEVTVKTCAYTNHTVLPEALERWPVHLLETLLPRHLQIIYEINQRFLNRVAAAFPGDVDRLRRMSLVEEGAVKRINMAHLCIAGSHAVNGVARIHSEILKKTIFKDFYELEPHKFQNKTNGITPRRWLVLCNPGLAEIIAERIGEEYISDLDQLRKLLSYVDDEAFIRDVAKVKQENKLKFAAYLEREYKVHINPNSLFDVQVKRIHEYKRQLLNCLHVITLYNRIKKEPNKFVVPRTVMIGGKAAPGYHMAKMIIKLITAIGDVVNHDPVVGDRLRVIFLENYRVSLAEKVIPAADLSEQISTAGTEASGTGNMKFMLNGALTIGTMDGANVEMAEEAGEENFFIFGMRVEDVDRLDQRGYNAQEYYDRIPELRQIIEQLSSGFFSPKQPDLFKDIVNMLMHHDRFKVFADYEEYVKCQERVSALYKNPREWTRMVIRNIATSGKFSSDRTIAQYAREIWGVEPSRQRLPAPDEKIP
Described as above. To be noted: read-out: IC50/LC50 (μM) / Gp / Rabbit muscle. Type of assay: biochemical.

In the case of `OC(c1cc(C(F)(F)F)nc2c(C(F)(F)F)cccc12)C1CCCCN1` (stereo not shown) [MEF, mefloquine], the figures for the IC50 in assay [1] and in assay [2] were 128 µM and > 438 µM, respectively.

`C[C@H]1[C@H](C)CC[C@]2(C(=O)O)CC[C@]3(C)C(=CC[C@@H]4[C@@]5(C)CC[C@H](O)C(C)(C)[C@@H]5CC[C@]43C)[C@H]12` [UA, ursolic acid]: the values for the IC50 in assay [1] and in assay [2] were > 438 µM and 5.47 µM, respectively.
